Bounds are passed on as bounds.

In the experiment the target is T1, farnesyltransferase (Rattus norvegicus, UniProt Q02293+Q04631).
T1 construct: The enzyme can be purified according to Cell, 62: 81-88 (1990), utilizing steps one, two, and three; from tissue; host or cells: rat brain
T1 sequence (Q02293 whole entry, one chain of several): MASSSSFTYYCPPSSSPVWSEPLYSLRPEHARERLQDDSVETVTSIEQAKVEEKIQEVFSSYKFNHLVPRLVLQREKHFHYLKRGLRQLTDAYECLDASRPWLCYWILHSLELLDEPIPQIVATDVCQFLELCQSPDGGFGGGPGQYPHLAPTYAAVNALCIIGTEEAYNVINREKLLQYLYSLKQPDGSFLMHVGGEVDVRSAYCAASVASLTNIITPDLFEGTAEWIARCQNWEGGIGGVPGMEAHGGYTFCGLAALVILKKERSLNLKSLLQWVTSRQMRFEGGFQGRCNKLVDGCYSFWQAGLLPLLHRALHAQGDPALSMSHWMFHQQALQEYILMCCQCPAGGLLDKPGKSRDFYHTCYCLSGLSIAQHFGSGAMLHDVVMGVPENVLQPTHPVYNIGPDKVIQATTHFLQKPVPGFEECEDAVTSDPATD
The experiment can be described thus: Inhibition of farnesyltransferase (3H-farnesyldiphosphate / H-Ras filter assay). Format: biochemical. The following applies: test compound at 10^−7 M; 3H-farnesyldiphosphate 0.6 μM, H-Ras 5.0 μM, 37° C., 30 minutes. The text has this: The ability of the compounds of the present invention to inhibit farnesyltransferase can be measured according to the method described in J. Biol. Chem., 266: 14603 (1991) or J. Biol. Chem., 270:660-664 (1995). Procedures for determination of the inhibition of farnesylation of the oncogene protein Ras are described in J. Biol. Chem., 266:15575-15578 (1991) and U.S. Pat. No. 5,245,061. Inhibition of rat brain farnesyltransferase can also be measured in vitro using an Amersham Life Science commercial scintillation proximity assay kit and substituting a biotin-K Ras B fragment (0.1 μM final concentration) for the biotin-lamin substrate provided by Amersham. The enzyme can be purified according to Cell, 62: 81-88 (1990), utilizing steps one, two, and three. […] The percent inhibition of the farnesylation caused by the compounds of the present invention (at 10^−6 M) compared to an uninhibited control sample can be evaluated in the same Amersham test system.
The mixture was brought to 37° C., treated with enzyme, incubated for 30 minutes, treated with 1 M HCl/ethanol (1 mL) to stop the reaction, stirred for 15 minutes at room temperature, diluted with ethanol (2 mL), filtered through a 2.5 cm glass microfiber filter (Whatman) with ethanol rinses (4×2 mL). The glass transferred to a scintillation vial and treated with scintillation fluid (5 mL). The radioisotope retained on the glass fiber filter was counted and reflected the activity of the enzyme.
In turn, `Cn1cncc1C(OCc1ccc(Cl)cc1-c1cccc(Cl)c1Cl)c1ccc(C#N)cc1` (centres unmarked) [Example 25, 4-((1-methyl-1H-imidazol-5-yl)((2′, 3′,5-trichloro(1,1′-biphenyl)-2-yl)methoxy)methyl)benzonitrile] came in with an inhibition at 0.1 µM of 87%.
Compound `Cn1cncc1C(OCc1ccc(Cl)cc1-c1cc(Cl)cc(Cl)c1)c1ccc(C#N)cc1` (centres unmarked) [Example 27, 4-((1-methyl-1H-imidazol-5-yl)((3′,5,5′-trichloro(1,1′-biphenyl)-2-yl)methoxy)methyl)benzonitrile] displayed an inhibition at 0.1 µM of 47%.
The figure for `Cn1cncc1C(OCc1ccc(Cl)cc1-c1ccc(Cl)c(Cl)c1)c1ccc(C#N)cc1` (centres unmarked) [Example 28, 4-((1-methyl-1H-imidazol-5-yl)((3′,4′,5-trichloro(1,1′-biphenyl)-2-yl)methoxy)methyl)benzonitrile] is above 85%.
On to `Cn1cncc1C(OCc1ccc(Cl)cc1-c1ccc(C=O)s1)c1ccc(C#N)cc1` (centres unmarked) [Example 29, 4-(((4-chloro-2-(5-formyl-2-thienyl)benzyl)oxy)(1-methyl-1H-imidazol-5-yl)methyl)benzonitrile], for which the inhibition at 0.1 µM worked out at 92%.
The same measure for `Cn1cncc1C(OCc1ccc(Cl)cc1-c1cccc(C=O)c1)c1ccc(C#N)cc1` (centres unmarked) [Example 30, 4-(((5-chloro-3′-formyl(1,1′-biphenyl)-2-yl)methoxy)(1-methyl-1H-imidazol-5-yl)methyl)benzonitrile]: 92%; for `CCOc1cccc(-c2cc(C#N)ccc2COC(c2ccc(C#N)cc2)c2cncn2C)c1` (centres unmarked) [Example 32, 6-(((4-cyanophenyl)(1-methyl-1H-imidazol-5-yl)methoxy)methyl)-3′-ethoxy(1,1′-biphenyl)-3-carbonitrile]: above 98%; for `Cn1cncc1C(OCc1ccc(C#N)cc1-c1ccc2c(c1)OCO2)c1ccc(C#N)cc1` (centres unmarked) [Example 33, 3-(1,3-benzodioxol-5-yl)-4-(((4-cyanophenyl)(1-methyl-1H-imidazol-5-yl)methoxy)methyl)benzonitrile]: above 98%.
The figure for `Cn1cncc1C(OCc1ccc(C#N)cc1-c1cccc(Cl)c1)c1ccc(C#N)cc1` (centres unmarked) [Example 34, 3′-chloro-6-(((4-cyanophenyl)(1-methyl-1H-imidazol-5-yl)methoxy)methyl)(1,1′-biphenyl)-3-carbonitrile] is above 97%; for `Cn1cncc1C(OCc1ccc(Cl)nc1-c1cccc(Cl)c1)c1ccc(C#N)cc1` (centres unmarked) [Example 35, 4-(((6-chloro-2-(3-chlorophenyl)-3-pyridinyl)methoxy)(1-methyl-1H-imidazol-5-yl)methyl)benzonitrile] it is 96%.
The figure for `Cc1ccc(COC(c2ccc(C#N)cc2)c2cncn2C)c(-c2cccc(Cl)c2)n1` (centres unmarked) [Example 36, 4-(((2-(3-chlorophenyl)-6-methyl-3-pyridinyl)methoxy)(1-methyl-1H-imidazol-5-yl)methyl)benzonitrile] is 70%.
Take `Cn1cncc1C(O)(C#Cc1ccc(Cl)cc1-c1cccc(Cl)c1)c1ccc(C#N)cc1` (centres unmarked) [Example 37, 4-(3-(3′,5-dichloro(1,1′-biphenyl)-2-yl)-1-hydroxy-1-(1-methyl-1H-imidazol-5-yl)-2-propynyl)benzonitrile]: the inhibition at 0.1 µM is above 96%.
The figure for `Cn1cncc1C(OCc1cnc(F)cc1-c1cccc(Cl)c1)c1ccc(C#N)cc1` (centres unmarked) [Example 38, 4-(((4-(3-chlorophenyl)-6-fluoro-3-pyridinyl)methoxy)(1-methyl-1H-imidazol-5-yl)methyl)benzonitrile] is 80%; for `COc1cc(-c2cccc(Cl)c2)c(COC(c2ccc(C#N)cc2)c2cncn2C)cn1` (centres unmarked) [Example 39, 4-(((4-(3-chlorophenyl)-6-methoxy-3-pyridinyl)methoxy)(1-methyl-1H-imidazol-5-yl)methyl)benzonitrile] it is 74%; for `Cn1cncc1C(OCc1cnc(C#N)cc1-c1cccc(Cl)c1)c1ccc(C#N)cc1` (centres unmarked) [Example 40, 4-(3-chlorophenyl)-5-(((4-cyanophenyl)(1-methyl-1H-imidazol-5-yl)methoxy)methyl)-2-pyridinecarbonitrile] it is above 83%.
The same measure for `Cn1cncc1C(NC(=O)c1cn(C)c(=O)cc1-c1cccc(Cl)c1)c1ccc(C#N)cc1` (centres unmarked) [Example 41, 4-(3-chlorophenyl)-N-((4-cyanophenyl)(1-methyl-1H-imidazol-5-yl)methyl)-1-methyl-6-oxo-1,6-dihydro-3-pyridinecarboxamide]: 10%; for `Cn1cncc1C(OCc1cc(=O)c(C#N)cn1-c1cccc(Cl)c1)c1ccc(C#N)cc1` (centres unmarked) [Example 42, 1-(3-chlorophenyl)-6-(((4-cyanophenyl)(1-methyl-1H-imidazol-5-yl)methoxy)methyl)-4-oxo-1,4-dihydro-3-pyridinecarbonitrile]: 87%.
The same measure for `Cn1cncc1C(OCc1c[nH]c(=O)cc1-c1cccc(Cl)c1)c1ccc(C#N)cc1` (centres unmarked) [Example 44, 4-(((4-(3-chlorophenyl)-6-oxo-1,6-dihydro-3-pyridinyl)methoxy)(1-methyl-1H-imidazol-5-yl)methyl)benzonitrile]: 89%.
On to `Cn1cncc1C(OCc1cn(C)c(=O)cc1-c1cccc(Cl)c1)c1ccc(C#N)cc1` (centres unmarked) [Example 45, 4-(((4-(3-chlorophenyl)-1-methyl-6-oxo-1,6-dihydro-3-pyridinyl)methoxy)(1-methyl-1H-imidazol-5-yl)methyl)benzonitrile], for which 0.1 µM produced 87% inhibition.
`Cn1cncc1C(OCc1ccc(C#N)cc1NS(=O)(=O)c1cccs1)c1ccc(C#N)cc1` (centres unmarked) [Example 46, N-(5-cyano-2-(((4-cyanophenyl)(1-methyl-1H-imidazol-5-yl)methoxy)methyl)phenyl)-2-thiophenesulfonamide] showed an inhibition at 0.1 µM of 100%.
The same measure for `Cc1ccc(S(=O)(=O)Nc2cc(C#N)ccc2COC(c2ccc(C#N)cc2)c2cncn2C)cc1` (centres unmarked) [Example 47, N-(5-cyano-2-(((4-cyanophenyl)(1-methyl-1H-imidazol-5-yl)methoxy)methyl)phenyl)-4-methylbenzenesulfonamide]: 100%.
The figure for `Cn1cncc1C(OCc1c(-c2cccc(Cl)c2)cc(C#N)c(=O)n1C)c1ccc(C#N)c(F)c1` (centres unmarked) [Example 52, 5-(3-chlorophenyl)-6-(((4-cyano-3-fluorophenyl)(1-methyl-1H-imidazol-5-yl)methoxy)methyl)-1-methyl-2-oxo-1,2-dihydro-3-pyridinecarbonitrile] is 100%.
The figure for `Cn1cncc1C(OCc1c(-c2cccc(Cl)c2)cc(C#N)c(=O)n1C)c1ccc(C#N)cc1F` (centres unmarked) [Example 53, 5-(3-chlorophenyl)-6-(((4-cyano-2-fluorophenyl)(1-methyl-1H-imidazol-5-yl)methoxy)methyl)-1-methyl-2-oxo-1,2-dihydro-3-pyridinecarbonitrile] is 100%; for `Cn1cncc1C(OCc1c(-c2cccc(Cl)c2)cc(C#N)c(=O)n1C)c1ccc(C#N)c(Cl)c1` (centres unmarked) [Example 54, 6-(((3-chloro-4-cyanophenyl)(1-methyl-1H-imidazol-5-yl)methoxy)methyl)-5-(3-chlorophenyl)-1-methyl-2-oxo-1,2-dihydro-3-pyridinecarbonitrile] it is 100%.

As a reminder, the inhibition is the percentage by which the read-out fell short of the control. Read a high inhibition as a strong effect.

The record behind these values is patent publication US20020115640A1, “Farnesyltransferase inhibitors” (priority 2000, published 2002).
